Results as given in US8841285B2, “Potent immunosuppressive agents, derivatives and uses” (priority 2002, dated 2014).
Read-outs that look alike come from different tables or passages of the source.

Experiments:
skin graft = settings: cited from earlier work
[1] = system: HCV IRES-mediated translation; assay: in vitro translation in RRL, HCV IRES cistron; assay type: biochemical, rabbit; settings: 100 nM
Procedure: (§1) In vitro Translation and Transcription. pSP/(CAG)33/FF/HCV/Ren·pA51 and pKS/FF/EMC/Ren were linearized by BamHI, then purified by phenol:chloroform extraction and ethanol precipitation, and dissolved in water. pSP/(CAG)33/FF/HCV/Ren·A51 and pKS/FF/EMC/Ren were individually transcribed using a large scale RNA production system in the presence of m7Gppp cap analog followed by incubation with DNase as described by the manufacturer. Resulting RNA was purified using a kit as described by the manufacturer. Translation was performed using a rabbit reticulocyte lysate system as per instructions. Briefly, 200 ng of purified RNA was combined in a 20 μl reaction containing 10 μl RRL, 0.2 μl each of minus Met and minus Leu amino acid mixtures, 70 mM KCl, 2 mM DTT, 1× translation buffer, and 10 units of RNasin. Compounds or DMSO were added to a final DMSO concentration of 2%. Reactions were incubated at 30° C. for 1.5 h, then 5 μl of the reaction mixture was assayed for luciferase activity as per instructions of luciferas reporter assay system.

[2] = system: cap-dependent translation; assay: in vitro translation in RRL, bicistronic reporter, cap-dependent cistron; assay type: biochemical, rabbit
Procedure: as §1

HeLa cells = assay type: cell-based
eIF4A-eIF4G = biological target: T1, eIF4A-eIF4G (Homo sapiens, UniProt P60842); assay: 6XHis-eIF4AI pulldown, eIF4A-eIF4G interaction; assay type: binding; settings: HeLa lysate; PatA at 100 μM
T1 construct: The entire ORF of human eIF4AI was ligated in-frame into the BamHI and HindIII sites of the pET-28a expression vector; made in house; host or cells: bait from E. coli BL21(DE3); eIF4G endogenous in HeLa lysate
Procedure: 6XHis-eIF4AI pulldown, Co-immunoprecipitation, and m^7GTP-Sepharose pulldown. For 6XHis-eIF4AI pulldowns, HeLa lysates were prepared as described above. Equal aliquots (200 μl) of lysate were incubated with PatA analogs or DMSO and 8.5 μg of 6XHis-eIF4AI overnight at 4° C., followed by addition of Ni-NTA resin for 1 h, then resin was washed with 3 ml buffer, and boiled in SDS-PAGE loading buffer followed by SDS-PAGE and immunoblotting with indicated antibodies. For co-immunoprecipitation, 293T cells with vector control or pcDNA3-Flag-4B lysates were prepared by pipetting in: 20 mM HEPES, pH 7.4, 100 mM KCl, 0.5% Triton-X-100, 20% glycerol, protease inhibitor and 15 μg/ml RNAse A followed by clearing at 13 000 g (10 min). For DMDA-PatA treated samples, lysis and wash buffers also contained 100 nM DMDA-PatA. Anti-Flag antibody was incubated overnight at 4° C., followed by addition of Protein G beads for 4 h. Beads were washed 3× with 500 μl buffer, boiled in SDS-PAGE loading buffer followed by SDS-PAGE and immunoblotting. m^7GTP-Sepharose was performed as described (Yoder-Hill et al., 1993) with modifications. 30 μl RRL was incubated with DMSO or DMDA-PatA at room temperature for 30 min, diluted with buffer supplemented with DMSO or DMDA-PatA (20 nM), then combined with 50 μl beads for 3 h at 4° C. followed by 4 washes with 1 ml buffer. […]

MCF-7 cells = assay: cell proliferation assay, MCF-7 cells; assay type: cell-based; settings: MCF-7 cells (FIG. 13)
Procedure: Cell Proliferation Assay. 1×10^5 of indicated cells in each well of a 96-well plate were treated with indicated compounds for 24 h followed by addition of 0.11 μCi of [^3H]-thymidine (6.7 Ci/mmol) per well for 6 h, followed by harvesting to GF/C filtermats using a cell harvester. Filtermats were air-dried and scintillation counted. IC50s were determined from quadruplicate data readings and curve-fitting analysis.

eIF4AI [3] = biological target: T2, eIF4AI (Homo sapiens, UniProt P60842); assay: ATP-dependent RNA helicase activity of 6XHis-eIF4AI; assay type: biochemical
T2 construct: The entire ORF of human eIF4AI was ligated in-frame into the BamHI and HindIII sites of the pET-28a expression vector; 6XHis (N); made in house; host or cells: E. coli BL21(DE3)
Procedure: (§2) Recombinant proteins. The entire ORF of human eIF4AI was ligated in-frame into the BamHI and HindIII sites of the pET-28a expression vector after PCR amplification from HeLa cells. Protein was produced in BL21(DE3) E. coli cultured in LB medium by induction with 1 mM IPTG for 6 h at 37° C. Cells were lysed by sonication and protein was purified using Ni-NTA resin as described by the manufacturer. For pET(His6-eIF4B), induction conditions were for 72 h at 16° C. Purification included a 1 ml Heparin column with a linear KCl gradient (50-500 mM).
(§3) ATPase and Helicase. ATPase activity was performed as described (Korneeva et al., 2005) with minor modifications. Reactions contained 2.5% DMSO, 6XHis-eIF4AI concentration was 0.56 μM, and reaction time was 10 min at 37° C. in buffer: 20 mM Tris-HCl, pH 7.5, 0.5 mM MgCl2, 100 mM KCl, 2 mM DTT, 0.1% (v/v) Tween 20, 10% (v/v) glycerol, 1 mg/ml BSA, and reactions were supplemented with 3-5 μCi of [γ-^32P]-ATP (6000 Ci/mmol). Saturating poly(U) concentrations were 1239 μM (nucleotides/20). Released phosphate was visualized on 15% native TBE polyacrylamide gels followed by autoradiography of wet gels (30 min exposure). Film was aligned with gels and spots were excised and ^32P levels were quantified by scintillation counting. Km and Vmax were determined by curve fitting. […]

eIF4AI [4] = biological target: T2, eIF4AI; assay: RNA-dependent ATPase activity of recombinant 6XHis-eIF4AI; assay type: biochemical; settings: saturating poly(U) RNA
Procedure: as §2, §3

T2 sequence (P60842 whole entry): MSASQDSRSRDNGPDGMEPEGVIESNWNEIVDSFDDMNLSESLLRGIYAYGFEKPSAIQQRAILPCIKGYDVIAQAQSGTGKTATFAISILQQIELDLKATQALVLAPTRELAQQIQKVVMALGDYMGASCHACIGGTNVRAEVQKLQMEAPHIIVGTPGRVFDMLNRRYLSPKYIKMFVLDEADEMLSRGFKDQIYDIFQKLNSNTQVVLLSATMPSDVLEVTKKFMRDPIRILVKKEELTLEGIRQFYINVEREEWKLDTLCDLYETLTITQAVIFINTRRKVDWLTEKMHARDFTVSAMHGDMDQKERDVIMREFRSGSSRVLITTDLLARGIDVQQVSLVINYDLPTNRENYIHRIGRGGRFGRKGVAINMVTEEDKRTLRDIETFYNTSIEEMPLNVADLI
T1 sequence (P60842 whole entry): as above

SMILES | activity in skin graft rejection assay (skin graft; all doses) | toxicity (skin graft; at high doses) | survival period of the skin graft (skin graft; mouse skin graft rejection) | toxicity (skin graft; other dose levels) | inhibition of HCV IRES-mediated (eIF4A-independent) translation [1] | inhibition of cap-dependent translation ([2]; 100 nM, HCV IRES bicistronic reporter) | IC50 ([2]; EMCV IRES bicistronic reporter, read-out: IC50, cap-dependent initiation) | IC50 ([2]; HCV IRES bicistronic reporter, read-out: IC50, cap-dependent translation) | stress granule formation (HeLa cells) | effect on eIF4A-eIF4G interaction (eIF4A-eIF4G) | reversibility of antiproliferative effect (MCF-7 cells) | effect on helicase activity of eIF4A and 4B (eIF4AI [3]; in the presence of 6XHis-4B) | effect on ATP-dependent RNA helicase activity of eIF4AI (eIF4AI [3]; with ATP) | effect on Km ATP (eIF4AI [4]) | effect on kcat (eIF4AI [4])
CC(/C=C/C(C)=C/[C@@H]1Cc2nc(cs2)[C@@H](C)C[C@@H](N)CC(=O)O[C@@H](C)C/C(C)=C/C=C\C(=O)O1)=C\CN(C)C [Pat A (1), Pateamine A] | All doses were active | 17% | 15 days | no toxicity | not inhibited | nearly completely inhibited | ~88 nM | ~20 nM | capable of inducing stress granule formation | disrupted | irreversible |  |  |  | 
CC(/C=C/C(C)=C/[C@@H]1Cc2nc(cs2)CCCCC(=O)O[C@@H](C)C/C(C)=C/C=C\C(=O)O1)=C\CN(C)C [compound 3, desmethyl, desamino-pateamine A] |  |  |  |  |  |  |  |  |  |  |  | further stimulated | dramatically increased | significant decrease | marginally increased
